Data as given in patent publication US10568898B2, “Lipophilic nanoparticles for drug delivery” (priority 2013, dated 2020).

Columns and labels:
Ramos cells = format: cell-based; conditions: FIG. 7, free doxorubicin at 100 nM-1 μM, HDL-Andrographolide NP at 5 nM
Procedure: For suspension cell lines (Ramos, Jurkat, and SUDHL4), confluent cells were deposited onto 96-well plates at 1×10^5 cells/mL, then treated with either: 1-10 nM HDL NP, 1-10 nM HDL-drug NP, 10 nM-1 μM free drug, or 10 nM human HDL. All solutions were in 1% PBS, in a total volume of 100 μL. Cells were incubated for 48 hours with the treatment, then assessed for viability using a 3-(4,5-dimethylthiazol-2-yl)-5-(3-carboxymethoxyphenyl)-2-(4-sulfo-phenyl)-2H-tetrazolium (MTS) cell proliferation assay. 20 μL of the MTS solution (G1112; Promega) was added to each well; absorbance at 490 nm was measured immediately and after 90 min. Survival for a sample was presented as absorbance for that sample at 90 min, compared to absorbance for the non-treated control at 90 min. Since metabolically active cells reduce MTS, lower absorbance indicates cell death.
Cytotoxicity of the HDL-Doxorobucin NPs was assessed by incubating with lymphoma cells in culture for 48-72 hours, and measuring cell viability by a 3-(4,5-dimethylthiazol-2-yl)-5-(3-carboxymethoxyphenyl)-2-(4-sulfophenyl)-2H-tetrazolium (MTS) assay. […]
For suspension cell lines (Ramos and SUDHL4), 90 μl confluent cells were deposited into 96-well plates at 1×10^5 cells/mL, then treated with 10 μl of either: 1-10 nM HDL NP, 1-10 nM HDL-drug NP, 10 nM-1 μM free drug, 10 nM human HDL, or PBS. […] Cells were incubated for 48 hours with the treatment, and then assessed for viability using a 3-(4,5-dimethylthiazol-2-yl)-5-(3-carboxymethoxyphenyl)-2-(4-sulfo-phenyl)-2H-tetrazolium (MTS) cell proliferation assay. Twenty μL of the MTS solution (G1112; Promega) was added to each well; absorbance at 490 nm was measured immediately and after 90 minutes. […] Cell viability was calculated according to the following formula: Cell viability=(OD490, 90 min(sample)−OD490, 90 min(0% survival control))/(OD490, 90 min(100% survival control)−OD490, 90 min(0% survival control))×100%
Cytotoxicity of the Dox-HDL-NPs was assessed by incubating Dox-HDL-NP, HDL-NP, or free doxorubicin at varying doses with different lymphoma cell lines. […]

[1] = test system: LNCaP adenocarcinoma cell lines; experiment: Fluorescence microscopy of doxorubicin uptake; format: cell-based, human; conditions: 18 hours after treatment
Procedure: To further confirm delivery of doxorubicin to cancer cells with HDL-NP, LNCaP adenocarcinoma cell lines were assessed by fluorescence microscopy after treatment with free doxorubicin, Dox-HDL-NP, and HDL-NP.

H9c2 cells = conditions: 48- and 72-hour treatment, same concentrations as lymphoma lines
Procedure: For adherent lines (LNCaP, MDA-MB-231, and H9c2), cells were deposited onto 96-well plates at a concentration of 5×10^4 cells/mL, 24 hours prior to treatment. Cells were then treated, incubated, and assessed as described above for the suspension cells.
The effects of Dox-HDL-NP and free doxorubicin in H9c2 cardiomyoblasts, a rat-derived cardiomyocyte cell line that has been used extensively in mechanistic studies of doxorubicin toxicity in heart cells, have been studied.

[2] = clinical use; cited from earlier work

Row | SMILES | killing effect (Ramos cells) | doxorubicin fluorescence in cells [1] | cell viability in cardiomyoblasts (H9c2 cells) | cumulative dose above which cardiotoxicity typically occurs [2]
1 | C=C1CC[C@@H]2[C@](C)(CO)[C@H](O)CC[C@@]2(C)[C@@H]1C/C=C1/C(=O)OC[C@H]1O [Andrographolide] | slight protective effect on cells | – | – | –
2 | CC[C@]1(O)C[C@H]2CN(CCc3c([nH]c4ccccc34)[C@@](C(=O)OC)(c3cc4c(cc3OC)N(C=O)[C@H]3[C@@](O)(C(=O)OC)[C@H](OC(C)=O)[C@]5(CC)C=CCN6CC[C@]43[C@@H]65)C2)C1 [Vincristine] | kills with comparable efficiency to the bare HDL NP | – | – | –
3 | COc1cccc2c1C(=O)c1c(O)c3c(c(O)c1C2=O)C[C@@](O)(C(=O)CO)C[C@@H]3O[C@H]1C[C@H](N)[C@H](O)[C@H](C)O1 [doxorubicin] | substantial killing effect | fluorescence was clearly seen | significant reduction in viability | exceeds 450 mg/m^2 of body surface area
